Source: ChEMBL document CHEMBL1137601, “Catalysis of zinc transfer by D-penicillamine to secondary chelators” (J Med Chem, 2007)

How the values were obtained:
[1] = biological target: T1, Carboxypeptidase A1 (Bos taurus) (UniProt P00730); assay: Inhibition of bovine ZnCPD pretreated at 0.25 mM assessed as residual enzyme activity in presence of 2.5 uM thionenin after 17 mins
T1 sequence (whole entry): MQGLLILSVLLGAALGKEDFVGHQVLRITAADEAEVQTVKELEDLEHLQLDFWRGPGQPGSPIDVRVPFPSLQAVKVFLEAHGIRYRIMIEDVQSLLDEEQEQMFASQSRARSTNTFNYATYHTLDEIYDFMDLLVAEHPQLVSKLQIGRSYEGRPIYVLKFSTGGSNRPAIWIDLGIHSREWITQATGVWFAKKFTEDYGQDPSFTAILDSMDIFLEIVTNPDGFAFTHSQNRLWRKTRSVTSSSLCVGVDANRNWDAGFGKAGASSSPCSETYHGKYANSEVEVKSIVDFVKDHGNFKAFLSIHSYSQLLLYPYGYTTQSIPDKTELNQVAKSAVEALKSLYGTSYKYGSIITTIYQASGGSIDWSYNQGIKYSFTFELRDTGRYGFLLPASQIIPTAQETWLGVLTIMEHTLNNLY

[2] = biological target: T1, Carboxypeptidase A1 (Bos taurus); assay: Inhibition of bovine ZnCPD pretreated at 0.25 mM assessed as residual enzyme activity in presence of 1 mM ethylenediaminetetraacetic acid within 20 mins
[3] = biological target: T1, Carboxypeptidase A1 (Bos taurus); assay: Inhibition of bovine ZnCPD pretreated for 200 seconds at 1.5 mM assessed as transfer of zinc(II) from ZnCPD to chelator 4-(2-pyridylazo)-resorcinol; parameters: scale not given: the % may be the effect or the level left
[4] = biological target: T1, Carboxypeptidase A1 (Bos taurus); assay: Inhibition of bovine ZnCPD pretreated at 5 mM assessed as residual enzyme activity in presence of 1 mM ethylenediaminetetraacetic acid within 7 mins

Activity [1]: 1.5%
Activity [2]: 1%
Activity [3]: 45%
Activity [4]: 0.1%
Compound: CC(C)(S)[C@@H](N)C(=O)O
